Data: patent US20210332139A1, “MODULATION OF LEUKOCYTE ACTIVITY IN TREATMENT OF NEUROINFLAMMATORY DEGENERATIVE DISEASE” (Leuvas Therapeutics, priority 2013, published 2021)

Key:
human primary PMNs = assay: Static adhesion of human primary PMNs to ICAM-1 with signaling inhibitors; assay type: cell-based; conditions: for Adherent hPMNs to ICAM-1, n.t. (resting), Mean / Adherent hPMNs to ICAM-1, fMLP, Mean / Adherent hPMNs to ICAM-1, Aβ oligo, Mean: 30 min; for Adherent hPMNs to ICAM-1, fMLP, Mean: then 50 nM fMLP 1 min; for Adherent hPMNs to ICAM-1, Aβ oligo, Mean: then 10 μM Aβ 1 min; for Blockade of Aβ-induced adhesion of human neutrophils: result in words
Procedure: As a model system, human primary PMNs were isolated form healthy donors stimulated to very rapid adhesion to purified human ICAM-1, ligand for the β2 integrins LFA-1 and Maci. fMLP (the classical chemoattractant) was the positive control. […] PMNs were treated for 30 min. with different concentrations of inhibitors followed by stimulation for 1 min with 50 nM fMLP or with 10 μM Aβ. The number of adherent cells was quantified by computer-assisted evaluation. Statistical analysis was SD.

human neutrophils [1] = assay: Rapid human neutrophil adhesion to ICAM-1, inhibition by bocMLF and PTx; assay type: cell-based
Procedure: It is known that one of the receptors for Aβ is the receptor for fMLP, formylpeptide chemotactic receptor (FPR). To evaluate the contribution of this GPCR receptor on Aβ-dependent neutrophil adhesion, we inhibited its function using boc-MLF, a formyl-peptide chemotactic receptor antagonist. Human neutrophils were incubated for 2 minutes with buffer (control) or with oligomeric Aβ. 0.1 μM fMLP was used as a positive control. Values are expressed as the mean counts of bound cells in 0.2 mm^2 from three independent experiments in duplicate. Error bars represent SD. […] To exclude the possibility that rapid adhesion triggering was a consequence of a generic plasma membrane alteration due to the lipophilic nature of Aβ, we evaluated rapid adhesion in lymphocytes, which are known to lack fMLP receptors.

human neutrophils [2] = assay: Isoluminol chemiluminescence ROS assay, human neutrophils; assay type: cell-based; conditions: result in words
Procedure: One of the mechanisms of neuronal damage by beta-amyloid in Alzheimer's disease is the generation of reactive oxygen species (ROS). We determined whether Aβ1-42 oligomers induce ROS production in neutrophils by using a chemiluminescence assay.
(§1) Isoluminol-based chemiluminescence assays were performed in HGCa in the presence of horseradish peroxidase (HRP) and isoluminol (both from Sigma-Aldrich) in a temperature-controlled Multilabel Count Victor X5 (Perkin Elmer). Assays were run in dark 96 well plates precoated with 250 μg/ml human fibrinogen in HGCa containing (final concentration): 100 μM isoluminol and 8 U/ml HRP. After addition of 1×10^5 human neutrophils or 7.5×10^5 mouse neutrophils, plates were left at 37° C. for 5-10 min and the reaction started by addition of the stimulus. Light emission was recorded every minute.
(§2) We used the chemotactic peptide fMLP as positive control. […] Data are mean+/−SD for three independent experiments.

[3] = test system: Bend.3 endothelial cell line; assay: Adhesion molecule expression on Bend.3 endothelial cells (immunofluorescence); assay type: cell-based, mouse; parameters: key: −: VCAM-1 and selectins were not expressed (indicated by -, Table 2); constitutively expressed at low levels on endothelial cells (indicated by +/−, some vessels were positive for ICAM-1, Table 2); an increase of ICAM-1 expression (indicated by +, Table 2); conditions: Bend.3 cells, 25 U/ml TNFα, 18 h, positive control
Procedure: We performed in vitro experiments to study the effect of soluble Aβ1-42 oligomers on the endothelial cell line Bend.3, derived from mouse cerebral cortex purchased by ATCC& Cell Biology Collection (CRL-2299TM).
Briefly, Bend.3 were cultured at a concentration of 20×10^3/ml on a glass coverslip in 24-well plates containing DMEM supplemented with 10% Fetal Calf Serum (FCS). Cells were stimulated with 10 μM Aβ 1-42, for 18 h in DMEM with 1% FCS. […] positive control, cells were treated with 25 U/ml of TNFα for 18 h in DMEM with 1% FCS. Bend.3 were rinsed with PBS and fixed with 4% PFA for 10 minutes. Cells were washed with PBS incubated with blocking buffer for 1 h at RT° C. Primary antibodies were diluted in 1% Bovine Serum Albumin (BSA) PBS. Cells were incubated overnight at 4° C. with 50 μg/ml anti-VCAM (hybridoma MK2.7), 10 μg/ml anti-ICAM (hybridoma YN1.7), 0.5 μg/ml anti-CD31 (370700, Invitrogen), 5 μg/ml anti-E-selectin (hybridoma RME-1) and 1.5 μg/ml anti-P-selectin (CD62P, BD Pharmigen). The day after, cells were rinsed 2 times with PBS and then incubated with 7.5 μg/ml biotinylated secondary antibody (rabbit anti-rat, T0226, VectorLab) for 1 h at RT° C. Cells were rinsed 2 times with PBS and incubated with 25 μg/ml Avidin-TexasRed (A2006, Vector Lab) for 1 h at RT° C. in the dark. After rinsing in PBS, cells were incubated with 1 μg/ml Dapi (D9542, Sigma-Aldrich, St. Louis, Mo.), for 5 minutes in the dark. Finally, glass coverslip was transferred on glass slides and mounted with Dako medium (S3023, DAKO NORTH AMERICA, Carpinteria, Calif.). Glass slides were kept at 4° C. in the dark and acquired by LEICA fluorescence microscopy (DM6000B, LEICA, Germany).
We analyzed the expression of VCAM-1, ICAM-1, E- and P-selectin on Bend.3 after Aβ1-42 oligomers stimulation. TNF-α stimulation, which is well known to up-regulate the adhesion molecules expression, was used as positive control. We evaluated a dose-response effect of Aβ1-42 soluble oligomers on Bend.3 cells, ranging from 1 to 10 μM after 6 or 18 hours of treatment. After 18 h of treatment with 10 μM Aβ we observed a significant up-regulation of […] compared to non-stimulated control cells (CTRL) (Table 2). […] ICAM-1 was constitutively expressed at low levels on endothelial cells (indicated by +/−, some vessels were positive for ICAM-1, Table 2), but 18 h treatment with Aβ1-42 led to an increase of ICAM-1 expression (indicated by +, Table 2).

mouse neutrophils = assay: Isoluminol chemiluminescence ROS assay, mouse neutrophils; assay type: cell-based; conditions: mean+/−SD
Procedure: as §1, §2
Data are mean+/−SD counts per second.

neutrophils = assay: Rapid adhesion of neutrophils, soluble versus fibrillary Aβ1-42; assay type: cell-based; conditions: 30 μM, mean+/−SD
Text: Although two-times less efficient than the soluble form, fibrillary Aβ triggered a significant increase of rapid neutrophil adhesion on both ICAM-1 and fibrinogen (Table 8; data are expressed as the mean+/−SD of bound cells in 0.2 mm^2 from three independent experiments made in duplicate).

| Molecule | Adherent hPMNs to ICAM-1, n.t. (resting), Mean (human primary PMNs; inhibitor 100 μM) | Adherent hPMNs to ICAM-1, fMLP, Mean (human primary PMNs; inhibitor 100 μM) | Adherent hPMNs to ICAM-1, Aβ oligo, Mean (human primary PMNs; inhibitor 100 μM) | Blockade of Aβ-induced adhesion of human neutrophils (human primary PMNs) | also measured |
| --- | --- | --- | --- | --- | --- |
| Oc1cc(O)cc(/C=C/c2ccc(O)c(O)c2)c1 [Piceatannol, piceatannol] |  |  |  |  | Adherent hPMNs to ICAM-1, n.t. (resting), Mean (human primary PMNs; inhibitor 50 μM): 21.0; Adherent hPMNs to ICAM-1, fMLP, Mean (human primary PMNs; inhibitor 50 μM): 218.7; Adherent hPMNs to ICAM-1, Aβ oligo, Mean (human primary PMNs; inhibitor 50 μM): 276.1 |
| bocMLF | 20.1 | 55.0 | 81.8 | inhibits | Neutrophil adhesion to ICAM-1 after inhibitor pre-treatment (human neutrophils [1]; buffer (control), no stimulus): 17.3 ± 6.6 bound cells in 0.2 mm^2; Neutrophil adhesion to ICAM-1 after inhibitor pre-treatment (human neutrophils [1]; stimulated 2 minutes with oligomeric Aβ): 74.8 ± 25.5 bound cells in 0.2 mm^2; Neutrophil adhesion to ICAM-1 after inhibitor pre-treatment (human neutrophils [1]; stimulated with 0.1 μM fMLP): 69 ± 26.5 bound cells in 0.2 mm^2 |
| C=CC(=O)N1CCC[C@@H](n2nc(-c3ccc(Oc4ccccc4)cc3)c3c(N)ncnc32)C1 [Ibrutinib, ibrutinib] | 21.9 | 80.0 | 78.0 |  |  |
| COc1cc2ncnc(Nc3ccc(O)c(Br)c3)c2cc1OC [WHI-P154] | 23.5 | 207.8 | 218.8 | can block |  |
| c1ccc2c(c1)[I+]c1ccccc1-2 [DPI] |  |  |  |  | Effect on fMLP and Aβ1-42 ROS responses (human neutrophils [2]): suppressed |
| COc1cc(Nc2c(C#N)cnc3cc(OCCCN4CCN(C)CC4)c(OC)cc23)c(Cl)cc1Cl [Bosutinib, bosutinib] | 19.3 | 98.2 | 95.1 |  |  |
| Cc1nc(Nc2ncc(C(=O)Nc3c(C)cccc3Cl)s2)cc(N2CCN(CCO)CC2)n1 [Dasatinib, dasatinib] |  |  |  |  | Adherent hPMNs to ICAM-1, n.t. (resting), Mean (human primary PMNs; inhibitor 20 μM): 24.9; Adherent hPMNs to ICAM-1, fMLP, Mean (human primary PMNs; inhibitor 20 μM): 230.8; Adherent hPMNs to ICAM-1, Aβ oligo, Mean (human primary PMNs; inhibitor 20 μM): 227.5 |
| TNF-a |  |  |  |  | CD31 expression (endothelial cell marker) [3]: +; E-sel expression [3]: +; ICAM-1 expression [3]: +; P-sel expression [3]: +; VCAM-1 expression [3]: +; ROS generation (chemiluminescence) (mouse neutrophils; 1 min): 38 ± 20 counts per second; ROS generation (chemiluminescence) (mouse neutrophils; 2 min): 62 ± 21 counts per second; ROS generation (chemiluminescence) (mouse neutrophils; 3 min): 102 ± 28 counts per second; ROS generation (chemiluminescence) (mouse neutrophils; 4 min): 136 ± 26 counts per second; ROS generation (chemiluminescence) (mouse neutrophils; 5 min): 187 ± 14 counts per second |
| Fib Abeta: fibrillary form of Aβ1-42 peptide |  |  |  |  | Rapid adhesion to Fibrinogen (neutrophils): 171 ± 21.8 bound cells in 0.2 mm^2; Rapid adhesion to ICAM-1 (neutrophils): 457.3 ± 45.54 bound cells in 0.2 mm^2 |
| N#CC[C@H](C1CCCC1)n1cc(-c2ncnc3[nH]ccc23)cn1 [Ruxolitinib, ruxolitinib] | 17.0 | 243.8 | 244.5 |  |  |
| Cc1ccc(NC(=O)c2ccc(CN3CCN(C)CC3)cc2)cc1Nc1nccc(-c2cccnc2)n1 [Imatinib, imatinib] | 23.5 | 124.9 | 109.3 | can block |  |
| C[C@@H]1CCN(C(=O)CC#N)C[C@@H]1N(C)c1ncnc2[nH]ccc12 [CP-690550] |  |  |  | can block | Adherent hPMNs to ICAM-1, n.t. (resting), Mean (human primary PMNs; inhibitor 200 μM): 22.1; Adherent hPMNs to ICAM-1, fMLP, Mean (human primary PMNs; inhibitor 200 μM): 209.6; Adherent hPMNs to ICAM-1, Aβ oligo, Mean (human primary PMNs; inhibitor 200 μM): 172.4 |
| NC(=O)c1cccc(-c2cc(Nc3ccc(OC(F)(F)F)cc3)ncn2)c1 [GNF-2] | 25.2 | 144.2 | 115.5 | can block |  |
| Cc1cnc(Nc2ccc(OCCN3CCCC3)cc2)nc1Nc1cccc(S(=O)(=O)NC(C)(C)C)c1 [TG101348] | 20.1 | 147.2 | 134.8 | can block |  |
| N#C/C(=C/c1ccc(O)c(O)c1)C(=O)NCc1ccccc1 [AG490] |  |  |  | can block | Adherent hPMNs to ICAM-1, n.t. (resting), Mean (human primary PMNs; inhibitor 200 μM): 23.2; Adherent hPMNs to ICAM-1, fMLP, Mean (human primary PMNs; inhibitor 200 μM): 274.5; Adherent hPMNs to ICAM-1, Aβ oligo, Mean (human primary PMNs; inhibitor 200 μM): 258.6 |
